Assays:
[1] = biological target: fast skeletal troponin complex (Oryctolagus cuniculus, UniProt P02586+P02643); experiment: isothermal titration calorimetry; format: binding
slow skeletal troponin = slow skeletal troponin (Bos taurus, UniProt G3MYN5+P63315); experiment: isothermal titration calorimetry; format: binding

Chain of fast skeletal troponin complex (P02586 2-160): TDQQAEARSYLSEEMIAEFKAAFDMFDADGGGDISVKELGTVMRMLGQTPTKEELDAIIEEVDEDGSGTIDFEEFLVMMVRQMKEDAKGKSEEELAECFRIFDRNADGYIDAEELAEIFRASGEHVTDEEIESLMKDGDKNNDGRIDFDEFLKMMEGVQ
Chain of fast skeletal troponin complex (P02643 2-182): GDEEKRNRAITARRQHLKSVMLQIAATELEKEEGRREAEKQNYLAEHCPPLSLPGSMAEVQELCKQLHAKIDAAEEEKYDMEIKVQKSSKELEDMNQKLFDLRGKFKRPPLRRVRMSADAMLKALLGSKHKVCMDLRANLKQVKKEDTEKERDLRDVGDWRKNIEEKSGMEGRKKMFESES
Chain of fast skeletal troponin complex (P02641 2-279 partner): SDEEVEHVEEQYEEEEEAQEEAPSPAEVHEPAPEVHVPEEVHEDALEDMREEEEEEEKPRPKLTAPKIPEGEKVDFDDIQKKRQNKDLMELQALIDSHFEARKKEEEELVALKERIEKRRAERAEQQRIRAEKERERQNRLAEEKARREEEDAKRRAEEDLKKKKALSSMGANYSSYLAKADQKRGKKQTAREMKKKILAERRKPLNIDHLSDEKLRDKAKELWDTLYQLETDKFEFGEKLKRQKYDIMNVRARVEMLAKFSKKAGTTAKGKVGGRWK

C#Cc1cnc2nc(O)n(C(CC)CC)c2n1 [CK-2017357]
Kd [1]: 0.04 ± 0.006 µM | Kd (slow skeletal troponin): 3.8 ± 0.7 µM

From paper PMC3296825 (Nature medicine, 2012)
